According to patent publication US7473711B2, “Androgen modulators” (Pfizer Inc., priority 2004, dated 2009):
Substitutions are numbered along the chain they refer to. Read-outs that look alike come from different tables or passages of the source.

Experiments:
[1] = target: T1, hAR (human androgen receptor) (Homo sapiens, UniProt P10275); experiment: Competitive binding analysis on hAR extracts with 3H-DHT tracer
T1 construct: made in house; host or cells: baculovirus/Sf9 insect cells (extract)
T1 sequence (P10275 1-920): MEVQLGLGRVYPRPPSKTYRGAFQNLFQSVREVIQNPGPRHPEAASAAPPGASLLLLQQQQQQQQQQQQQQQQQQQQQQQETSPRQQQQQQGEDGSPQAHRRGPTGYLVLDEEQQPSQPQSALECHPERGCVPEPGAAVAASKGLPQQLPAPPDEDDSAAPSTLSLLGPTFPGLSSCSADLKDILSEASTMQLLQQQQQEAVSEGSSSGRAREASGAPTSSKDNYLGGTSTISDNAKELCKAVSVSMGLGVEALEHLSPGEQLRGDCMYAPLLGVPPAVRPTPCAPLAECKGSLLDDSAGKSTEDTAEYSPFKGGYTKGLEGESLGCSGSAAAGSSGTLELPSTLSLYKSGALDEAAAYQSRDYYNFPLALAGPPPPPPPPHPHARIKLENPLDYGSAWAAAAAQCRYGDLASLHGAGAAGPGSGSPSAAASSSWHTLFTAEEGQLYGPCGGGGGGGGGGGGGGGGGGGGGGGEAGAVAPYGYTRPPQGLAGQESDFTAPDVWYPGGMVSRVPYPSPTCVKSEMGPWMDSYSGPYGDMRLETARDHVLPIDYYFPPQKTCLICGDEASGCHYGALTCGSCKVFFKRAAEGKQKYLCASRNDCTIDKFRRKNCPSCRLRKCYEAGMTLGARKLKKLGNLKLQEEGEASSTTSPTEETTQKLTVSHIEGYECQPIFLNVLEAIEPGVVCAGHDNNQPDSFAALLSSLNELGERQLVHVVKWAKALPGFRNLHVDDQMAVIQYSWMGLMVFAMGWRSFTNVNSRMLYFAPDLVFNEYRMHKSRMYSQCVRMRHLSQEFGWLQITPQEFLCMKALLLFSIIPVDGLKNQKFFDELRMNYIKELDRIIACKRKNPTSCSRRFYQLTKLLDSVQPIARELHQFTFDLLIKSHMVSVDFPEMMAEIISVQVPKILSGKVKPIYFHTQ
Method: The compounds of Formula I have affinity for the androgen receptor. […] The description below describes how the assay was carried out.
Competitive binding analysis was performed on baculovirus/Sf9 generated hAR extracts in the presence or absence of different concentrations of test agent and a fixed concentration of ^3H-dihydrotestosterone (^3H-DHT) as tracer. This binding assay method is a modification of a protocol previously described (Liao S., et. al. J. Steroid Biochem. 20:11-17 1984). Briefly, progressively decreasing concentrations of compounds are incubated in the presence of hAR extract (Chang et al. P.N.A.S. Vol. 89, pp. […], 1992), hydroxylapatite, and 1 nM ^3H-DHT for one hour at 4° C. Subsequently, the binding reactions are washed three times to completely remove excess unbound ^3H-DHT. hAR bound ^3H-DHT levels are determined in the presence of compounds (i.e. competitive binding) and compared to levels bound when no competitor is present (i.e. maximum binding). Compound binding affinity to the hAR is expressed as the concentration of compound at which one half of the maximum binding is inhibited. Table II below provides the results that were obtained for selected compounds (reported data is the mean of multiple tests as shown below)

[2] = target: T2, androgen receptor in MDA-MB453-MMTV clone 54-19 cells (Homo sapiens, UniProt P10275); experiment: AR antagonist cell assay (MMTV-luciferase reporter, 100 pM DHT); format: cell-based; conditions: MDA-MB453-MMTV clone 54-19, inhibition of 100 pM DHT induced luciferase, 17 hr; mean of multiple tests; read-out: AR Cell IC50
T2 sequence (P10275 1-920 Q868H): T1 sequence (P10275 1-920) with Q868H
Method: The compounds ability to antagonize the effects of androgen on the androgen receptor were determined in a whole cell assay as described immediately below.
Experimental Procedure for AR Antagonist Cell Assay
Cell line: MDA-MB453-MMTV clone 54-19. This cell line is a stable transfected cell line with MDA-MB453 cell background (a human breast tumor cell line expressing androgen receptor). A MMTV minimal promoter containing ARE was first cloned in front of a firefly luciferase reporter gene. Then the cascade was cloned into transfection vector pUV120puro. Electroporation method was used for transfecting MDA-MB-453 cell. Puromycin resistant stable cell line was selected. Cell Culture Media and Reagents:
Culture medium: DMEM (high glucose, Gibco cat #: 11960-044), 10% FBS, and 1% L-glutamine
Plating medium: DMEM (phenol red free), 10% charcoal treated HyClone serum, 1% L-glutamine
Assay medium: DMEM (phenol red free), 1% charcoal treated HyClone serum, 1% L-glutamine, and 1% penicillin/streptomycin
3X luciferase buffer: 2% beta-mercaptoethanol, 0.6% ATP, 0.0135% luciferine in cell lysis buffer
• 1. Cells are maintained in culture medium, splitting cells when they reach 80-90% confluence • 2. To test compounds, 10,000 cells/well are plated to opaque 96 cell culture plate in 100 ul/well plating medium, culture for overnight at 37° C. in cell culture incubator • 3. Carefully remove plating medium, then add 80 ul/well of pre-warmed assay medium, add 10 ul/well testing compound (final concentration at) 1000 nM, 200 nM, 40 nM, 8 nM, 1.6 nM, and 0.32 nM), incubate at 37° C. for 30 minutes • 4. Add 10 ul/well freshly prepared DHT (final concentration at 100 pM) to each well, incubate at 37° C. for 17 hr (overnight) • 5. Add 50 ul/well 3X luciferase buffer, incubate at room temperature for 5 minutes, then count on Luminometer
The fold induction over background by 100 pM DHT in the absence of testing compounds is standardized as 100% and experimental result is expressed as percentage of inhibition by testing compounds.
The results are reported as the mean of multiple tests as described below (the numbers of tests are indicated in the footnote). N.D. denotes that the compound was not tested.

spinal BMD = conditions: after 7 years of treatment; cited from earlier work
[3] = baculovirus/Sf9 hAR extract, 1 nM 3H-DHT, one hour at 4° C, mean of multiple tests, read-out: AR Binding IC50

Compound	IC50 [1, 3] [nM]	IC50 [2] [nM]	IC50 [1] [nM]	increase in spinal BMD (spinal BMD) [%]
CCCC(COc1ccc(C#N)c(C(F)(F)F)c1)Oc1ccc(C#N)c(C(F)(F)F)c1 (stereo not drawn) [Example 4, 4,4′-[Pentane-1,2-diylbis(oxy)]bis[2-(trifluoromethyl)benzonitrile]]	630	> 1000		
C[C@@H](C[C@H](C)Oc1ccc(C#N)c(C(F)(F)F)c1)Oc1ccc(C#N)c(C(F)(F)F)c1 (stereo in doubt) [Example 20, 4,4′-[(2S,4S)-Pentane-2,4-diylbis(oxy)]bis[2-(trifluoromethyl)benzonitrile]]		159	17	
C=CC(COc1ccc(C#N)c(C(F)(F)F)c1)Oc1ccc(C#N)c(C(F)(F)F)c1 (stereo not drawn) [Example 3, 4,4′-[But-1-ene-3,4-diylbis(oxy)]bis[2-(trifluoromethyl)benzonitrile]]	115	457		
CCCC(Oc1ccc(C#N)c(C(F)(F)F)c1)C(CC)COc1ccc(C#N)c(C(F)(F)F)c1 (stereo not drawn) [Example 19, 4-{[3-(4-Cyanophenoxy)-2-ethylhexyl]oxy}bis[2-(trifluoromethyl)benzonitrile]]	216	> 1000		
N#Cc1ccc(O[C@H](CO)COc2ccccc2)cc1C(F)(F)F [Example 29, (1R)-4-(1-Hydroxymethyl-2-phenoxy-ethoxy)-2-trifluoromethyl-benzonitrile]		117	44	
C=CCC(CCOc1ccc(C#N)c(C(F)(F)F)c1)Oc1ccc(C#N)c(C(F)(F)F)c1 (stereo not drawn) [Example 17, 4,4′-[Hex-1-ene-4,6-diylbis(oxy)]bis[2-(trifluoromethyl)benzonitrile]]		> 1000	47	
C[C@@H](CCOc1ccc(C#N)c(C(F)(F)F)c1)Oc1ccc(C#N)c(C(F)(F)F)c1 [Example 15, 4-({(3S)-3-[4-Cyano-3-(trifluoromethyl)phenoxy]butyl}oxy)-2-(trifluoromethyl)benzonitrile]		257	49	
N#Cc1ccc(OCCCOc2ccc(C#N)c(C(F)(F)F)c2)cc1C(F)(F)F [Example 11, 4,4′-[Propane-1,3-diylbis(oxy)]bis[2-(trifluoromethyl)benzonitrile]]	165	> 1000		
COC[C@@H](COc1ccccc1)Oc1ccc(C#N)c(C(F)(F)F)c1 [Example 31, (1S)-4-(1-Methoxymethyl-2-phenoxy-ethoxy)-2-trifluoromethyl-benzonitrile]		126	46	
NCCCC(O)(P(=O)(O)O)P(=O)(O)O [alendronate]				≤ 11
CC(CCC(C)Oc1ccc(C#N)c(C(F)(F)F)c1)Oc1ccc(C#N)c(C(F)(F)F)c1 (stereo not drawn) [Example 22, 4,4′-[Hexane-2,5-diylbis(oxy)]bis[2-(trifluoromethyl)benzonitrile]]	293	322		
